In assay [1] the target is T1, CCK2R (Homo sapiens, UniProt P32239).
T1 sequence (P32239 1-447): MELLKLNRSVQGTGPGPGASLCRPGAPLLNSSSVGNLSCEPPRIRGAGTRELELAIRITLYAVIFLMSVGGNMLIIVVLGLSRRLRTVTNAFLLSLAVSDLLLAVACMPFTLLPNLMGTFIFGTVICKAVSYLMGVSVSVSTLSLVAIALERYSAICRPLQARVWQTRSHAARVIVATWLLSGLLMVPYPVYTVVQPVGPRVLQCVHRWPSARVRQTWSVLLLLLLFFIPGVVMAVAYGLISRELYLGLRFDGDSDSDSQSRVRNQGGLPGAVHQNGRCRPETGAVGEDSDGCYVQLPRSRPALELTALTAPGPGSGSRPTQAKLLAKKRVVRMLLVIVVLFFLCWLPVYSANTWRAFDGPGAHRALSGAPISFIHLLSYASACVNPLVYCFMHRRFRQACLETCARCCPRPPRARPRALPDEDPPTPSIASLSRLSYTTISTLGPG
As to the kind of experiment: Binding of 99mTc conjugates to HEK-293 CCK2R cells (cell bound radioactivity). Further details: expressed in transfected cells; host or cells: HEK-293, G418-selected, from Dr. Mark Hellmich (University of Texas at Galveston). The protocol: CRL-1, CRL-2, CRL-3 and CRL-4 were chelated to ^99mTc and tested for binding using two transfected cell lines of HEK-CCK2R (HEK-293 CCK2R) and HEK-CCK2R splice cell line (HEK CCK2i4svR), obtained from Dr. Mark Hellmich (University of Texas at Galveston). Cells were cultured in Dulbecco's modified Eagles (Gibco) supplemented with 10% Fetal Bovine Serum and G418 disulfate (SIGMA; 400 μg/ml), 1% penicillin/streptomycin at 37° C. in a humidified 95% air, 5% CO2 atmosphere.
Competition studies were performed using 100 fold excess of free Z-360 containing corresponding peptide linker and no chelating moiety. HEK 293 CCK2R and HEK CCK2i4svR were seeded onto 24 well plates and allowed to become confluent over 48-72 hours. Spent medium in each well was replaced with 0.5 ml fresh media containing 0.5% BSA and increasing concentrations of the test article. After incubating for 1 h at 37° C. cells were rinsed with incubation solution (2×1.0 ml) to remove any unbound radioactivity. Cells were then resuspended on 0.5 ml 0.25N NaOH and cell radioactivity was counted using a γ-counter. The dissociation constant (KD) was calculated using a plot of cell bound radioactivity versus the concentration of the radiotracer using Graphpad Prism 4 and assuming a non-cooperative single site binding equilibrium.

Assay [2] deals with HEK 293 cells expressing CCK2R tumors. As to the kind of experiment: In vivo potency, subcutaneous HEK 293 CCK2R tumors. On the set-up: species or system nu/nu mice. The following applies: for antitumor activity in comparison to untreated controls / tumor size / growth during the period of the study: 2 μmol/kg per injection. As for the experimental part:
Following the promising results obtained in vitro with the Z-360 targeted chemotherapeutics, antitumor effects of the compounds were investigated in vivo. HEK 293 cells expressing CCK2R (5.0×10^6 in 50% HC matrigel) were injected in the shoulder of 5-6 week old female nu/nu mice. Tumors were measured in two perpendicular directions every two to three days with vernier calipers, and their volumes calculated as 0.5×L×W^2 where L is the longest axis (in millimeters) and W is the axis perpendicular to L (in millimeters). Dosing solutions were prepared in saline and administered through either the lateral vein of the mice for Tubulysin B conjugates or intraperitoneally for desacetylvinblastine hydrazide conjugates. Dosing was initiated when the subcutaneous tumors reached ˜100 mm^3 in volume. Each mouse received 2 μmol/kg of the test conjugate in 100 microliters of saline per injection, three times a week for three weeks. Mouse weights were also recorded at each dosing as a measure of gross toxicity. Mice in the control groups received no treatment.

The subject of assay [3] is HEK 293 cells expressing the CCK2R. The class given is cell-based. The settings on record: for pIC50: dose dependent toxicity; for cell toxicity / potency: concentration range used (FIG. 16). The protocol:
FIGS. 13A-C show the results of a study on the cytotoxicity of conjugate 23 in HEK CCK2R cells, shown at varying hours from introduction. CW-2478 denotes conjugate 23, with FIG. 13A showing values at 2 hours, FIG. 13B showing the values at 4 hours, and FIG. 13C showing the values at 9 hours.
This may partly explain the modest in vivo antitumor observed activity despite its impressive antagonistic effects.

Assay [4] deals with T1, CCK2R. The following applies: cited from earlier work.
The test system of assay [5] is subcutaneous PANC-1 tumor. The settings on record: oral Z-360 along with gemcitabine, cited from earlier work.
Where [6] appears, read: three times a week for three weeks.

pIC50, pKi: −log10 of the molar value.

We go through nine molecules from patent US12485179B2, “Cholecystokinin B receptor targeting for imaging and therapy” (Purdue Research Foundation, priority 2012, dated 2025).

As usually defined, the Kd is a measure of binding affinity in units of concentration. Turning to `CC(C)(C)C(=O)CN1C(=O)[C@H](NC(=O)Nc2cccc(C(=O)NC[C@H](N)C(=O)N[C@@H](CC(=O)O)C(=O)N[C@@H](CS)C(=O)O)c2)CN(C2CCCCC2)c2ccccc21` [CRL-4 ^99mTc, metal not drawn], the Kd at CCK2R [1] (1 h at 37° C., 99mTc chelated, read-out: Kd (nM) HEK-293-CCK2R Cells) worked out at 270 nM.

`CC[C@]1(O)C[C@@H]2CN(CCc3c([nH]c4ccccc34)[C@@](C(=O)OC)(c3cc4c(cc3OC)N(C)[C@H]3[C@@](O)(C(=O)NNC(=O)OCCSSC[C@H](NC(=O)[C@H](CCC(=O)NC[C@H](O)[C@@H](O)[C@H](O)[C@H](O)CO)NC(=O)[C@H](CCC(=O)O)NC(=O)[C@H](CCC(=O)NC[C@H](O)[C@@H](O)[C@H](O)[C@H](O)CO)NC(=O)[C@H](CCC(=O)O)NC(=O)CCCCCCCNC(=O)c5cccc(NC(=O)N[C@@H]6CN(C7CCCCC7)c7ccccc7N(CC(=O)C(C)(C)C)C6=O)c5)C(=O)O)[C@H](O)[C@]5(CC)C=CCN6CC[C@]43[C@@H]65)C2)C1` [conjugate 23]: in assay [2] (setting [6]), the “antitumor activity in comparison to untreated controls” value (shortened to “antitumor activity in comparison”) is reported as “remarkable antitumor activity” and the “tumor size / growth during the period of the study” value is reported as “remain the same size”. The “H & E staining of remaining tumor masses” value in assay [2] (conjugate 23 and conjugate 23+competition groups) is “contain very few malignant cells”.

For the molecule `CC(C)(C)C(=O)CN1C(=O)[C@H](NC(=O)Nc2cccc(C(=O)N[C@@H](CCC(=O)O)C(=O)N[C@@H](CCC(=O)NC[C@H](O)[C@@H](O)[C@H](O)[C@H](O)CO)C(=O)N[C@@H](CCC(=O)O)C(=O)N[C@@H](CCC(=O)NC[C@H](O)[C@@H](O)[C@H](O)[C@H](O)CO)C(=O)NC[C@H](N)C(=O)N[C@@H](CC(=O)O)C(=O)N[C@@H](CS)C(=O)O)c2)CN(C2CCCCC2)c2ccccc21` [CRL-2 ^99mTc, metal not drawn], at CCK2R [1] (compared with CRL-1 99mTc), the “specificity of binding (competition with free Z-360)” value is on record as “significantly higher specificity”.

As a reminder, the pIC50 is the negative decadic logarithm of the IC50, by convention in mol/L. A low value points to a large IC50. With tubulysin b [reference compound], in assay [3], the pIC50 is 8.89.

In assay [3], vinblastine [reference compound] gave a pIC50 of 8.10.

Broadly, the pKi is the negative decadic logarithm of the Ki, by convention in mol/L. On to `CC(C)(C)C(=O)CN1C(=O)[C@H](NC(=O)Nc2cccc(C(=O)O)c2)CN(C2CCCCC2)c2ccccc21` [Z-360, (R)-(−)-3-[3-(1-tert-butylcarbonylmethyl-2-oxo-5-cyclohexyl-1,3,4,5-tetrahydro-2H-1,5-benzodiazepin-3-yl)ureido]benzoic acid monohydrate], for which the “selectivity ratio over CCK1R” value at CCK2R [4] (CCK2R over CCK1R) is recorded as 672. Besides, the pKi on CCK2R [4] was 9.33. Besides, the “inhibition of subcutaneous PANC-1 tumor growth” value in assay [5] (compared with either agent alone) is 27.1%. Further, in assay [5] (compared with the vehicle), the survival entry is “significantly increased survival”. Besides, the “cell toxicity / potency” value in assay [3] is reported as “no concentration dependent cell toxicity”.

Regarding `CCCC(=O)OCN(C(=O)[C@@H](NC(=O)C1CCCCN1C)C(C)CC)[C@H](C[C@@H](OC(C)=O)c1nc(C(=O)N[C@@H](Cc2ccc(O)cc2)C[C@H](C)C(=O)NNC(=O)OCCSSC[C@H](NC(=O)[C@@H](CCC(=O)NC[C@H](O)[C@@H](O)[C@H](O)[C@H](O)CO)NC(=O)[C@@H](CCC(=O)O)NC(=O)[C@@H](CCC(=O)NC[C@H](O)[C@@H](O)[C@H](O)[C@H](O)CO)NC(=O)[C@@H](CCC(=O)O)NC(=O)CCCCCCCN)C(=O)O)cs1)C(C)C` (some centres unmarked) [Unt-TubH], the “antitumor activity in comparison” value in assay [2] (setting [6]) was “modest tumor inhibition”. Also, the “cell toxicity / potency” value in assay [3] is listed as “little to no potency”.

As for `CC[C@]1(O)CC2CN(CCc3c([nH]c4ccccc34)[C@@](C(=O)OC)(c3cc4c(cc3OC)N(C)[C@H]3[C@@](O)(C(=O)NNC(=O)OCCSSC[C@H](NC(=O)[C@@H](CCC(=O)NC[C@H](O)[C@@H](O)[C@H](O)[C@H](O)CO)NC(=O)[C@@H](CCC(=O)O)NC(=O)[C@@H](CCC(=O)NC[C@H](O)[C@@H](O)[C@H](O)[C@H](O)CO)NC(=O)[C@@H](CCC(=O)O)NC(=O)CCCCCCCN)C(=O)O)[C@H](O)[C@]5(CC)C=CCN6CC[C@]43[C@@H]65)C2)C1` (some centres unmarked) [Unt-DAVBH], the “tumor size / growth during the period of the study” value in assay [2] (setting [6]) is listed as “grew at almost the same rate as untreated controls”. Also, the “cell toxicity / potency” value in assay [3] is listed as “little to no potency”.

For the molecule `CCCC(=O)OCN(C(=O)[C@@H](NC(=O)C1CCCCN1C)C(C)CC)[C@H](C[C@@H](OC(C)=O)c1nc(C(=O)N[C@@H](Cc2ccc(O)cc2)C[C@H](C)C(=O)NNC(=O)OCCSSC[C@H](NC(=O)[C@@H](CCC(=O)NC[C@H](O)[C@@H](O)[C@H](O)[C@H](O)CO)NC(=O)[C@@H](CCC(=O)O)NC(=O)[C@@H](CCC(=O)NC[C@H](O)[C@@H](O)[C@H](O)[C@H](O)CO)NC(=O)[C@@H](CCC(=O)O)NC(=O)CCCCCCCNC(=O)c2cccc(NC(=O)N[C@@H]3CN(C4CCCCC4)c4ccccc4N(CC(=O)C(C)(C)C)C3=O)c2)C(=O)O)cs1)C(C)C` (some centres unmarked) [conjugate 22], in assay [2] (setting [6]), the “antitumor activity in comparison” value is recorded as “remarkable antitumor activity” and the “tumor size / growth during the period of the study” value is “reduction of tumor sizes”. The disappearance of tumors entry in assay [2] (2 μmol/kg, three times a week for three weeks, lateral vein) was “⅗”. The pIC50 in assay [3] was 7.92.
